One series can be described thus: Half-life in plasma. As to conditions: unit inferred, unit assumed.
The target in series [1] is Calpain II from rabbit muscle. In words: Calpain II inhibition, Suc-Leu-Tyr-AMC hydrolysis. In kind it is biochemical. On the procedure:
HEPES, heparin, and A23187 were obtained from Calbiochem. […] Calpain II from rabbit muscle and cathepsin B were purchased from Sigma. Papain was purchased from Calbiochem.
(§1) Peptide α-ketoamides were assayed as reversible enzyme inhibitors. Various concentrations of inhibitors in Me2 SO were added to the assay mixture which contained buffer and substrate. The reaction was started by the addition of the enzyme and the hydrolysis rates were followed spectrophotometrically or fluorimetrically.
(§2) Calpain I from human erythrocytes and calpain II from rabbit were assayed using Suc-Leu-Tyr-AMC [Sasaki et al., J. Biol. Chem. 259, 12489-12494 (1984); incorporated herein by reference], and the AMC (7-amino-4-methylcoumarin) release was followed fluorimetrically (excitation at 380 nm, and emmision at 460 nm). Calpains were assayed in 25 mM Tris pH=8.0, 10 mM CaCl2. Fluorescence was followed using a Gilson FL-1A fluorometer or a Perkin-Elmer 203 Fluorescence spectrometer. Cathepsin B was assayed in 20 mM sodium acetate pH=5.2, 0.5 mM dithiothreitol using Bz-Phe-Val-Arg-p-nitroanilide as substrate. Alternately, cathepsin B was assayed with Z-Arg-Arg-AFC [Barrett and Kirschke, Methods Enzymol. […] Enzymatic hydrolysis rates were measured at various substrate and inhibitor concentrations, and KI values were determined by either Lineweaver-Burk plots or Dixon plots. […]

The next series in a line: Half-life in liver. Type of series: in vitro ADME. As to conditions: unit inferred, unit assumed.
A further series has as its target T1, cathepsin B (Homo sapiens, UniProt P07858).
T1 construct: purchased Sigma
The series is described as follows: Cathepsin B inhibition. In kind it is biochemical. On the procedure:
(§3) HEPES, heparin, and A23187 were obtained from Calbiochem. Suc--Leu--Tyr--AMC and chromogenic substrates were obtained from Sigma Calpain I was purified from human erythrocytes according to the method of Kitahara (Kitahara et al., J. Biochem. 95, 1759-1766) omitting the Blue-Sepharose step. Calpain II from rabbit muscle and cathepsin B were purchased from Sigma. Papain was purchased from Calbiochem.
as §1
as §2, with “spectrometer.” for “spectrometer. Cathepsin B was assayed in 20 mM sodium acetate pH=5.2, 0.5 mM dithiothreitol using Bz-Phe-Val-Arg-p-nitroanilide as substrate. Alternately, cathepsin B was assayed with Z-Arg-Arg-AFC [Barrett and Kirschke, Methods Enzymol.”

Series [2] concerns the target T2, Calpain I from human erythrocytes (Homo sapiens, UniProt P07384).
T2 construct: Calpain I was purified from human erythrocytes; from tissue; host or cells: human erythrocytes
T2 sequence (P07384 1-714): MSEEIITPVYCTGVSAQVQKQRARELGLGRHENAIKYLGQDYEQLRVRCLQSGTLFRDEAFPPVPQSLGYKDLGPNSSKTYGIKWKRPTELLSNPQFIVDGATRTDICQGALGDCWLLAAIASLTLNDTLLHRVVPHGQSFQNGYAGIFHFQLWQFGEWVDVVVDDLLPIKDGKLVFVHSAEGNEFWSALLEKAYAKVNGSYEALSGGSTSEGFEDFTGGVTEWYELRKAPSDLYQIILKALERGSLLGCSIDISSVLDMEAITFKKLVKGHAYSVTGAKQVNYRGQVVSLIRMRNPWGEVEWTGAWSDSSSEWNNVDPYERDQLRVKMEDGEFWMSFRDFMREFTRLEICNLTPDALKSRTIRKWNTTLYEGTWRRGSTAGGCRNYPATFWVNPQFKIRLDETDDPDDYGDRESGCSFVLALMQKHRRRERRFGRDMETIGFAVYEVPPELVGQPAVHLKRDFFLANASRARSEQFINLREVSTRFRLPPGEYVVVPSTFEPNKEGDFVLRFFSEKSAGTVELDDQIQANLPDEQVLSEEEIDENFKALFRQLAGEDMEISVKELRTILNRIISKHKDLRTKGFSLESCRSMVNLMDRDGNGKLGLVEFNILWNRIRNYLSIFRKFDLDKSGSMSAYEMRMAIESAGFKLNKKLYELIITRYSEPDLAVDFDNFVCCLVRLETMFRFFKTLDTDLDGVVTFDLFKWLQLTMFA
T2 sequence (P04632 1-268 partner): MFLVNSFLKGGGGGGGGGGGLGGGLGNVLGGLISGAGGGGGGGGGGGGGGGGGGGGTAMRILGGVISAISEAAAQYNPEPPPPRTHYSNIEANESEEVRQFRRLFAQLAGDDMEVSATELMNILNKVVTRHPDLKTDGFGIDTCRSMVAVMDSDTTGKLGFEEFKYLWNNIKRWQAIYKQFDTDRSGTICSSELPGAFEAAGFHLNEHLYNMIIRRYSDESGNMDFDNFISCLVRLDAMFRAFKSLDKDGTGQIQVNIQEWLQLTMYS
In words: Calpain I inhibition, Suc-Leu-Tyr-AMC hydrolysis. In kind it is biochemical. To be noted: ratio of KI values. The protocol:
as §3, §1
as §2, with “spectrometer.” for “spectrometer. Cathepsin B was assayed in 20 mM sodium acetate pH=5.2, 0.5 mM dithiothreitol using Bz-Phe-Val-Arg-p-nitroanilide as substrate. Alternately, cathepsin B was assayed with Z-Arg-Arg-AFC [Barrett and Kirschke, Methods Enzymol.”

Turning to `CCOC(=O)C(=O)[C@H](CC)NC(=O)[C@H](CC(C)C)NC(=O)[C@H](CC(C)C)NC(=O)c1ccc2ccccc2c1` [2-NapCO-Leu-Leu-Abu-COOEt], the t1/2 plasma in “Half-life in plasma” turned out to be 25 min.
The same measure, in the same setting: for `CCOC(=O)C(=O)C(CC)NC(=O)C(CC(C)C)NC(=O)C(CC(C)C)NS(=O)(=O)c1ccc2ccccc2c1` (stereo not drawn) [2-NapSO2-Leu-Leu-Abu-COOEt, reference compound] the value was greater than 60 min.
For `CC[C@H](NC(=O)[C@H](CC(C)C)NC(=O)OCc1ccccc1)C(=O)C(=O)NCCc1ccccc1` [Z-Leu-Abu-CONH--(CH2)2 -Ph, Z--Leu--Abu--CONH--(CH2)2 Ph], the “KI Calpain II” value in series [1] is on record as “best inhibitor”.
`CCC(NC(=O)C(CC(C)C)NC(=O)OCc1ccccc1)C(=O)C(=O)NCc1ccccc1` (stereo not drawn) [Z-Leu-Abu-CONH-Bzl, Z--Leu--Abu--CONH--Bzl] came in with a t1/2 liver in “Half-life in liver” greater than 60 min. Besides, the t1/2 plasma in the series “Half-life in plasma” was greater than 60 min.
In the case of `CCNC(=O)C(=O)[C@H](CC)NC(=O)[C@H](CC(C)C)NC(=O)OCc1ccccc1` [Z-Leu-Abu-CONH-Et, Z--Leu--Abu--CONH--Et], at cathepsin B, the “KI Cath B” value was “best inhibitor”. In series [2], the “fold better inhibitor of calpain I than Z--Leu--Phe--CONH--Et” value stood at 14 fold. In the series “Half-life in liver”, the t1/2 liver was greater than 60 min. In addition, in “Half-life in plasma”, the t1/2 plasma was greater than 60 min.
Turning to `CCC(NC(=O)C(CC(C)C)NC(=O)OCc1ccccc1)C(=O)C(=O)NCC(C)C` (stereo not drawn) [Z-Leu-Abu-CONH-iBu, Z--Leu--Abu--CONH--iBu], the t1/2 plasma in “Half-life in plasma” is greater than 60 min.
On to `CCCCNC(=O)C(=O)C(CC)NC(=O)C(CC(C)C)NC(=O)OCc1ccccc1` (stereo not drawn) [Z-Leu-Abu-CONH-nBu, Z--Leu--Abu--CONH--nBu], for which, in the series “Half-life in liver”, the t1/2 liver is greater than 60 min. The same compound had a t1/2 plasma in “Half-life in plasma” greater than 60 min.
For `CCCNC(=O)C(=O)[C@H](CC)NC(=O)[C@H](CC(C)C)NC(=O)OCc1ccccc1` [Z-Leu-Abu-CONH-nPr, Z--Leu--Abu--CONH--nPr], the t1/2 liver in “Half-life in liver” is greater than 60 min. In “Half-life in plasma”, this compound returned a t1/2 plasma greater than 60 min.
Take `CCOC(=O)C(=O)[C@H](CC)NC(=O)[C@H](CC(C)C)NC(=O)OCc1ccccc1` [Z-Leu-Abu-COOEt, reference compound]: the t1/2 plasma in the series “Half-life in plasma” was 2.8 min.
In turn, `CCC(NC(=O)C(CC(C)C)NC(=O)OCc1ccccc1)C(=O)C(=O)O` (stereo not drawn) [Z-Leu-Abu-COOH, reference compound] registered a t1/2 liver in the series “Half-life in liver” greater than 60 min. Also, the t1/2 plasma in the series “Half-life in plasma” is greater than 60 min.
`CCOC(=O)C(=O)C(CCSC)NC(=O)C(CC(C)C)NC(=O)OCc1ccccc1` (stereo not drawn) [Z-Leu-Met-COOEt]: the t1/2 plasma in “Half-life in plasma” worked out at 8 min.
The compound `CCCCC(NC(=O)C(CC(C)C)NC(=O)OCc1ccccc1)C(=O)C(=O)OCC` (stereo not drawn) [Z-Leu-Nle-COOEt, reference compound] had a t1/2 plasma in the series “Half-life in plasma” of 3.7 min.
In the series “Half-life in plasma”, `CCCC(NC(=O)C(CC(C)C)NC(=O)OCc1ccccc1)C(=O)C(=O)OCC` (stereo not drawn) [Z-Leu-Nva-COOEt, reference compound] returned a t1/2 plasma of 2.8 min.
On the same count and under the same terms, for `CC(C)C[C@H](NC(=O)OCc1ccccc1)C(=O)N[C@@H](Cc1ccccc1)C(=O)C(=O)NCCc1ccccc1` [Z-Leu-Phe-CONH(CH2)2 Ph, Z--Leu--Phe--CONH--(CH2)2 Ph] the value was greater than 60 min.
With `CCNC(=O)C(=O)[C@H](Cc1ccccc1)NC(=O)[C@H](CC(C)C)NC(=O)OCc1ccccc1` [Z-Leu-Phe-CONH-Et, Z--Leu--Phe--CONH--Et], the t1/2 liver in the series “Half-life in liver” was greater than 60 min. The compound also showed a t1/2 plasma in the series “Half-life in plasma” greater than 60 min.
For the compound `CC(C)CNC(=O)C(=O)[C@H](Cc1ccccc1)NC(=O)[C@H](CC(C)C)NC(=O)OCc1ccccc1` [Z-Leu-Phe-CONH-iBu, Z--Leu--Phe--CONH--iBu], in “Half-life in plasma”, the t1/2 plasma is greater than 60 min.
Compound `CCCCNC(=O)C(=O)C(Cc1ccccc1)NC(=O)C(CC(C)C)NC(=O)OCc1ccccc1` (stereo not drawn) [Z-Leu-Phe-CONH-nBu, Z--Leu--Phe--CONH--nBu] yielded a t1/2 liver in “Half-life in liver” greater than 60 min. This compound also showed a t1/2 plasma in “Half-life in plasma” greater than 60 min.
In “Half-life in liver”, `CCCNC(=O)C(=O)C(Cc1ccccc1)NC(=O)C(CC(C)C)NC(=O)OCc1ccccc1` (stereo not drawn) [Z-Leu-Phe-CONH-nPr, Z--Leu--Phe--CONH--nPr] displayed a t1/2 liver greater than 60 min. This compound also registered a t1/2 plasma in “Half-life in plasma” greater than 60 min.
Compound `CC(C)CC(NC(=O)OCc1ccccc1)C(=O)NC(Cc1ccccc1)C(=O)C(=O)OCc1ccccc1` (stereo not drawn) [Z-Leu-Phe-COOBz] showed a t1/2 plasma in the series “Half-life in plasma” of 1.9 min.
The same measure, in the same setting: as for `CCOC(=O)C(=O)C(Cc1ccccc1)NC(=O)C(CC(C)C)NC(=O)OCc1ccccc1` (stereo not drawn) [Z-Leu-Phe-COOEt, Z--Leu--Phe--COOEt, reference compound], the figure is 7.8 min.
Turning to `CC(C)CC(NC(=O)OCc1ccccc1)C(=O)NC(Cc1ccccc1)C(=O)C(=O)O` (stereo not drawn) [Z-Leu-Phe-COOH, reference compound], the t1/2 liver in the series “Half-life in liver” was greater than 60 min. The same compound registered a t1/2 plasma in the series “Half-life in plasma” greater than 60 min.
In the series “Half-life in plasma”, `CCCCOC(=O)C(=O)[C@H](Cc1ccccc1)NC(=O)[C@H](CC(C)C)NC(=O)OCc1ccccc1` [Z-Leu-Phe-COOnBu] displayed a t1/2 plasma of 7.7 min.

These data come from patent publication US6235929A, “Tripeptide α-ketoamides” (Georgia Tech Research Corporation, priority 1996, dated 2001).
